Test results from PubChem BioAssay (NCI).
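Where inhibition never reached the appropriate level, the endpoint shown equals the highest concentration tested. Otherwise, values were interpolated linearly from a five-concentration, 48-hour dose response in 96-well plates. Definition used: TGI = concentration required for complete inhibition of growth.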

Assays:
Test in all cases: NCI tumour cell line growth inhibition, 48 h
786-0 renal = test system: 786-0 renal
A549 NSCLC = test system: A549 NSCLC
ACHN renal = test system: ACHN renal
CAKI-1 renal = test system: CAKI-1 renal
CCRF-CEM leukemia = test system: CCRF-CEM leukemia
COLO 205 colon = test system: COLO 205 colon
DLD-1 colon = test system: DLD-1 colon
DMS 114 small cell lung = test system: DMS 114 small cell lung
DMS 273 small cell lung = test system: DMS 273 small cell lung
EKVX NSCLC = test system: EKVX NSCLC
HCC-2998 colon = test system: HCC-2998 colon
HCT-116 colon = test system: HCT-116 colon
HCT-15 colon = test system: HCT-15 colon
HL-60(TB) leukemia = test system: HL-60(TB) leukemia
HOP-18 NSCLC = test system: HOP-18 NSCLC
HOP-62 NSCLC = test system: HOP-62 NSCLC
HOP-92 NSCLC = test system: HOP-92 NSCLC
HT29 colon = test system: HT29 colon
IGROV1 ovarian = test system: IGROV1 ovarian
K-562 leukemia = test system: K-562 leukemia
KM12 colon = test system: KM12 colon
KM20L2 colon = test system: KM20L2 colon
LOX IMVI melanoma = test system: LOX IMVI melanoma
LXFL 529 NSCLC = test system: LXFL 529 NSCLC
M14 melanoma = test system: M14 melanoma
M19-MEL melanoma = test system: M19-MEL melanoma
MALME-3M melanoma = test system: MALME-3M melanoma
MOLT-4 leukemia = test system: MOLT-4 leukemia
NCI-H226 lung = test system: NCI-H226 lung
NCI-H23 lung = test system: NCI-H23 lung
NCI-H460 lung = test system: NCI-H460 lung
NCI-H522 lung = test system: NCI-H522 lung
OVCAR-3 ovarian = test system: OVCAR-3 ovarian
OVCAR-4 ovarian = test system: OVCAR-4 ovarian
OVCAR-5 ovarian = test system: OVCAR-5 ovarian
OVCAR-8 ovarian = test system: OVCAR-8 ovarian
RXF 393 renal = test system: RXF 393 renal
RXF-631 renal = test system: RXF-631 renal
SF-268 CNS = test system: SF-268 CNS
SF-295 CNS = test system: SF-295 CNS
SF-539 CNS = test system: SF-539 CNS
SK-MEL-2 melanoma = test system: SK-MEL-2 melanoma
SK-MEL-28 melanoma = test system: SK-MEL-28 melanoma
SK-OV-3 ovarian = test system: SK-OV-3 ovarian
SN12C renal = test system: SN12C renal
SNB-19 CNS = test system: SNB-19 CNS
SNB-75 CNS = test system: SNB-75 CNS
SNB-78 CNS = test system: SNB-78 CNS
SR leukemia = test system: SR leukemia
SW-620 colon = test system: SW-620 colon
TK-10 renal = test system: TK-10 renal
U251 CNS = test system: U251 CNS
UACC-257 melanoma = test system: UACC-257 melanoma
UACC-62 melanoma = test system: UACC-62 melanoma
UO-31 renal = test system: UO-31 renal
XF 498 CNS = test system: XF 498 CNS
A498 renal = test system: A498 renal
RPMI-8226 leukemia = test system: RPMI-8226 leukemia
SK-MEL-5 melanoma = test system: SK-MEL-5 melanoma

Measured: TGI

C/C=C1/C(=Cc2[nH]c(C=c3[nH]/c(=C/C4=NC(=O)C(CC)=C4C)c(C)c3CCC(=O)O)c(CCC(=O)O)c2C)NC(=O)C1C (centres undefined)
37.1 µM: DMS 273 small cell lung
15.9 µM: HOP-62 NSCLC | HOP-92 NSCLC
49 µM: HT29 colon
24.9 µM: UACC-257 melanoma
27.4 µM: OVCAR-5 ovarian
5 µM: OVCAR-8 ovarian
20.1 µM: UO-31 renal
23 µM: SF-539 CNS
18.5 µM: SF-295 CNS
6.11 µM: M14 melanoma
31.9 µM: MALME-3M melanoma
37.2 µM: MOLT-4 leukemia
10.8 µM: NCI-H226 lung
20.3 µM: SK-MEL-2 melanoma | UACC-62 melanoma
39.7 µM: NCI-H522 lung
40.6 µM: NCI-H460 lung
27 µM: A549 NSCLC
41.6 µM: M19-MEL melanoma
17.5 µM: XF 498 CNS
2.61 µM: LOX IMVI melanoma
not listed: A498 renal | RPMI-8226 leukemia | SK-MEL-5 melanoma
> 50 µM: all other assays above

O=C(OCc1ccccc1)n1cccc1
not listed: HCT-15 colon
> 100 µM: all other assays above
